# Values of other authors in patent publication US20210212962A1, “METHODS AND COMPOSITIONS FOR THE TREATMENT OF GRANULOMA ANNULARE OR SUBCUTANEOUS INFLAMMATION AND NON-INFECTION GRANULOMATOUS DISEASES” (Sol-Gel Technologies Ltd., priority 2020, published 2021).
# Details: known for tapinarof treatments
smiles,measurement,value
"CC(C)c1c(O)cc(/C=C/c2ccccc2)cc1O [tapinarof, 3,5-dihydroxy-4-isopropyl-trans-stilbene]",folliculitis as a side effect in tapinarof treatments,10%
